Tested on: Human skin fibroblasts (HSF cells)
Test: MTT assay, effect on HSF cell growth
Format: cell-based
Details: 10% DMSO
Method: Dimethyl sulfoxide (DMSO) can dissolve formazan in cells, and its light absorption value can be measured at a wavelength of […] using an enzyme-linked immunosorbent assay, which can indirectly reflect the number of live cells. Within a certain range of cell numbers, the amount of MTT crystals formed is proportional to the number of cells.
Logarithmic phase cells are collected and the cell suspension concentration is adjusted. 100 μL of cell suspension is added per well and plated to adjust the density of the cells to be tested to 10,000 cells/well, and the edge wells are filled with sterile PBS. The cells are incubated under 5% CO2 at 37° C. until the cell monolayer spreads over all the bottom of the wells. Then, the drug in a concentration gradient is added; in principle, the drug can be added once the cells have adhered, with five parallel settings. The incubation is performed under 5% CO2 at 37° C. for 24 h or 48 h and the cells are observed under an inverted microscope. 20 μL of MTT solution (5 mg/mL, i.e., 0.5% MTT) is added to each well and the incubation is continued for 4 h. […] The light absorption value of each well is measured at […] using an Enzyme-Linked Immunosorbent Assay (ELISA) reader. […]

SMILES: C[S+](C)[O-] [DMSO, Dimethyl Sulfoxide, reference compound]
- RGR (24 h): 28.20%
- RGR (48 h): 17.15%

From patent publication US12473350B2, “Recombinant humanized type III collagen microsphere with innovative spatial structure, and design, preparation process and usethereof” (Nanjing Tzone Biotechnology Co., Ltd., priority 2023, dated 2025)
